In the NIST ThermoML archive (doi:10.1016/j.tca.2004.11.034):
± gives the expanded uncertainty stated by the source.

Columns and labels:
[1] = 101.33 kPa, Liquid; for speed of sound: Anton Paar DSA 48; for mass density: Vibrating tube method
[2] = excess molar enthalpy (molar enthalpy of mixing); xn = mol fraction of the nth substance listed; conditions: 298.15 K, 101.33 kPa, Liquid, Flow calorimetry
[3] = xn = mol fraction of the nth substance listed; conditions: 101.33 kPa, Liquid; for speed of sound: Anton Paar DSA 48; for mass density: Vibrating tube method

CC(C)CCl [1-chloro-2-methylpropane]
[1]
Conditions	mass density [kg/m3]	speed of sound [m/s]
298.15 K	870.89 ± 0.44	1079.2 ± 1.4
313.15 K	853.56 ± 0.43	–
333.15 K	–	1016.3 ± 1.4

CC1CCCO1 (stereo not given) [2-methyltetrahydrofuran]
[1]
Conditions	mass density [kg/m3]	speed of sound [m/s]
298.15 K	849.2 ± 0.46	1202.6 ± 1.4
313.15 K	833.88 ± 0.45	–
333.15 K	–	1136.2 ± 1.4

CCC(C)Cl (stereo not given) [2-chlorobutane] + CC1CCCO1
[2]
Conditions	excess molar enthalpy [kcal/mol]
x2 = 0.057	-0.00454 ± 0.000239
x2 = 0.104	-0.01 ± 0.000239
x2 = 0.201	-0.0198 ± 0.000478
x2 = 0.298	-0.0277 ± 0.000478
x2 = 0.398	-0.033 ± 0.000478
x2 = 0.497	-0.0356 ± 0.000478
x2 = 0.597	-0.0359 ± 0.000478
x2 = 0.696	-0.0323 ± 0.000478
x2 = 0.799	-0.0251 ± 0.000478
x2 = 0.901	-0.0141 ± 0.000239
x2 = 0.954	-0.00717 ± 0.000239

[3]
Conditions	mass density, 298.15 K [kg/m3]	mass density, 313.15 K [kg/m3]	speed of sound, 298.15 K [m/s]	speed of sound, 313.15 K [m/s]
x2 = 0.049	866.71 ± 0.45	–	1073.2 ± 1.4	–
x2 = 0.0565	–	849.52 ± 0.44	–	1013.7 ± 1.4
x2 = 0.1006	866.01 ± 0.45	–	1080.1 ± 1.4	–
x2 = 0.101	–	848.97 ± 0.44	–	1019.3 ± 1.4
x2 = 0.201	–	847.69 ± 0.44	–	1031.9 ± 1.4
x2 = 0.2041	864.52 ± 0.45	–	1093.8 ± 1.4	–
x2 = 0.3034	862.99 ± 0.45	–	1107.1 ± 1.4	–
x2 = 0.3045	–	846.28 ± 0.44	–	1045.1 ± 1.4
x2 = 0.4039	–	844.81 ± 0.44	–	1057.9 ± 1.4
x2 = 0.4055	861.31 ± 0.45	–	1120.8 ± 1.4	–
x2 = 0.5026	859.61 ± 0.45	–	1134 ± 1.4	–
x2 = 0.5074	–	843.19 ± 0.44	–	1071.3 ± 1.4
x2 = 0.6005	857.81 ± 0.45	–	1147.3 ± 1.4	–
x2 = 0.6044	–	841.58 ± 0.44	–	1083.9 ± 1.4
x2 = 0.6989	855.91 ± 0.45	–	1160.9 ± 1.4	–
x2 = 0.7042	–	839.79 ± 0.44	–	1097 ± 1.4
x2 = 0.8022	853.81 ± 0.45	–	1175.2 ± 1.4	–
x2 = 0.8034	–	837.9 ± 0.44	–	1110 ± 1.4
x2 = 0.8988	–	835.97 ± 0.44	–	1122.6 ± 1.4
x2 = 0.8991	851.69 ± 0.45	–	1188.7 ± 1.4	–
x2 = 0.9456	–	835.03 ± 0.44	–	1128.8 ± 1.4
x2 = 0.9472	850.55 ± 0.44	–	1195.3 ± 1.4	–

CC(C)(C)Cl [2-chloro-2-methylpropane] + CC1CCCO1
[2]
Conditions	excess molar enthalpy [kcal/mol]
x2 = 0.057	-0.00335 ± 0.000239
x2 = 0.104	-0.00717 ± 0.000239
x2 = 0.201	-0.0146 ± 0.000239
x2 = 0.298	-0.0198 ± 0.000478
x2 = 0.398	-0.0241 ± 0.000478
x2 = 0.497	-0.0261 ± 0.000478
x2 = 0.597	-0.0253 ± 0.000478
x2 = 0.696	-0.0227 ± 0.000478
x2 = 0.799	-0.0184 ± 0.000478
x2 = 0.901	-0.0105 ± 0.000239
x2 = 0.954	-0.0055 ± 0.000239

[3]
Conditions	mass density, 298.15 K [kg/m3]	mass density, 313.15 K [kg/m3]	speed of sound, 298.15 K [m/s]	speed of sound, 313.15 K [m/s]
x2 = 0.0505	837.22 ± 0.44	–	993.8 ± 1.4	–
x2 = 0.0517	–	819.88 ± 0.43	–	932.6 ± 1.4
x2 = 0.0895	–	820.9 ± 0.43	–	941.2 ± 1.4
x2 = 0.108	838.65 ± 0.44	–	1006.1 ± 1.4	–
x2 = 0.195	–	823.23 ± 0.44	–	964 ± 1.4
x2 = 0.2065	840.58 ± 0.44	–	1027.5 ± 1.4	–
x2 = 0.3015	–	825.36 ± 0.44	–	986.5 ± 1.4
x2 = 0.3136	842.3 ± 0.44	–	1050.9 ± 1.4	–
x2 = 0.3969	–	827.1 ± 0.44	–	1006.8 ± 1.4
x2 = 0.4125	843.81 ± 0.44	–	1072.6 ± 1.4	–
x2 = 0.4986	–	828.77 ± 0.44	–	1028.7 ± 1.4
x2 = 0.5156	845.26 ± 0.44	–	1095.2 ± 1.4	–
x2 = 0.605	–	830.31 ± 0.44	–	1051.5 ± 1.4
x2 = 0.6124	846.46 ± 0.44	–	1116.5 ± 1.4	–
x2 = 0.6978	–	831.4 ± 0.44	–	1071.1 ± 1.4
x2 = 0.7107	847.59 ± 0.44	–	1138.2 ± 1.4	–
x2 = 0.7998	–	832.45 ± 0.44	–	1092 ± 1.4
x2 = 0.8031	848.42 ± 0.44	–	1158.7 ± 1.4	–
x2 = 0.8947	–	833.18 ± 0.44	–	1111.7 ± 1.4
x2 = 0.9022	848.98 ± 0.44	–	1180.6 ± 1.4	–
x2 = 0.9476	849.12 ± 0.44	–	1190.7 ± 1.4	–
x2 = 0.949	–	833.54 ± 0.44	–	1123.7 ± 1.4

CC(C)CCl [1-chloro-2-methylpropane] + CC1CCCO1
[2]
Conditions	excess molar enthalpy [kcal/mol]
x2 = 0.06	-0.00789 ± 0.000239
x2 = 0.109	-0.016 ± 0.000478
x2 = 0.21	-0.0315 ± 0.000478
x2 = 0.309	-0.0416 ± 0.000717
x2 = 0.411	-0.0504 ± 0.000717
x2 = 0.511	-0.0535 ± 0.000717
x2 = 0.609	-0.0526 ± 0.000717
x2 = 0.707	-0.0468 ± 0.000717
x2 = 0.806	-0.0361 ± 0.000478
x2 = 0.904	-0.0201 ± 0.000478
x2 = 0.954	-0.0103 ± 0.000239

[3]
Conditions	mass density, 298.15 K [kg/m3]	mass density, 313.15 K [kg/m3]	speed of sound, 298.15 K [m/s]	speed of sound, 313.15 K [m/s]
x2 = 0.0515	870.05 ± 0.45	–	1085.4 ± 1.4	–
x2 = 0.0553	–	852.78 ± 0.45	–	1023 ± 1.4
x2 = 0.1006	869.23 ± 0.45	–	1091.3 ± 1.4	–
x2 = 0.1014	–	852.08 ± 0.45	–	1028.6 ± 1.4
x2 = 0.1992	–	850.48 ± 0.44	–	1040.5 ± 1.4
x2 = 0.2026	867.39 ± 0.45	–	1103.8 ± 1.4	–
x2 = 0.3	–	848.74 ± 0.44	–	1052.7 ± 1.4
x2 = 0.3059	865.41 ± 0.45	–	1116.6 ± 1.4	–
x2 = 0.4062	863.41 ± 0.45	–	1129.1 ± 1.4	–
x2 = 0.4072	–	846.78 ± 0.44	–	1065.7 ± 1.4
x2 = 0.5015	–	844.98 ± 0.44	–	1077 ± 1.4
x2 = 0.505	861.34 ± 0.45	–	1141.4 ± 1.4	–
x2 = 0.6022	859.23 ± 0.45	–	1153.5 ± 1.4	–
x2 = 0.605	–	842.9 ± 0.44	–	1089.3 ± 1.4
x2 = 0.7022	–	840.83 ± 0.44	–	1100.8 ± 1.4
x2 = 0.7035	856.92 ± 0.45	–	1166.1 ± 1.4	–
x2 = 0.8	–	838.61 ± 0.44	–	1112.4 ± 1.4
x2 = 0.8012	854.57 ± 0.45	–	1178.2 ± 1.4	–
x2 = 0.8967	–	836.35 ± 0.44	–	1123.8 ± 1.4
x2 = 0.9099	851.75 ± 0.45	–	1191.6 ± 1.4	–
x2 = 0.9491	–	835.09 ± 0.44	–	1130 ± 1.4
x2 = 0.9492	850.66 ± 0.45	–	1196.4 ± 1.4	–

CCCCCl [1-chlorobutane]
[1]
Conditions	mass density [kg/m3]	speed of sound [m/s]
298.15 K	880.69 ± 0.45	1118.8 ± 1.4
313.15 K	863.86 ± 0.45	–
333.15 K	–	1057.1 ± 1.4

CC1CCCO1 (stereo not given) [2-methyltetrahydrofuran] + CCCCCl
[2]
Conditions	excess molar enthalpy [kcal/mol]
x1 = 0.057	-0.00669 ± 0.000239
x1 = 0.104	-0.0139 ± 0.000478
x1 = 0.201	-0.0277 ± 0.000478
x1 = 0.298	-0.038 ± 0.000717
x1 = 0.398	-0.0466 ± 0.000717
x1 = 0.497	-0.0502 ± 0.000717
x1 = 0.597	-0.0495 ± 0.000717
x1 = 0.696	-0.0449 ± 0.000717
x1 = 0.799	-0.0351 ± 0.000478
x1 = 0.901	-0.0203 ± 0.000478
x1 = 0.954	-0.0103 ± 0.000239

[3]
Conditions	mass density, 298.15 K [kg/m3]	mass density, 313.15 K [kg/m3]	speed of sound, 298.15 K [m/s]	speed of sound, 313.15 K [m/s]
x1 = 0.0507	–	862.5 ± 0.45	–	1061 ± 1.4
x1 = 0.0535	879.23 ± 0.46	–	1123.2 ± 1.4	–
x1 = 0.0972	878.04 ± 0.46	–	1126.8 ± 1.4	–
x1 = 0.1022	–	861.16 ± 0.45	–	1065 ± 1.4
x1 = 0.1958	875.19 ± 0.45	–	1134.9 ± 1.4	–
x1 = 0.2014	–	858.46 ± 0.45	–	1072.6 ± 1.4
x1 = 0.2975	872.17 ± 0.45	–	1143.3 ± 1.4	–
x1 = 0.3019	–	855.6 ± 0.45	–	1080.3 ± 1.4
x1 = 0.4006	869.04 ± 0.45	–	1151.9 ± 1.4	–
x1 = 0.4047	–	852.6 ± 0.45	–	1088.5 ± 1.4
x1 = 0.5017	–	849.72 ± 0.44	–	1096.2 ± 1.4
x1 = 0.5031	865.88 ± 0.45	–	1160.5 ± 1.4	–
x1 = 0.6017	862.77 ± 0.45	–	1168.8 ± 1.4	–
x1 = 0.6026	–	846.65 ± 0.44	–	1104.3 ± 1.4
x1 = 0.6986	859.63 ± 0.45	–	1177 ± 1.4	–
x1 = 0.7017	–	843.55 ± 0.44	–	1112.3 ± 1.4
x1 = 0.7994	–	840.43 ± 0.44	–	1120.2 ± 1.4
x1 = 0.8009	856.27 ± 0.45	–	1185.6 ± 1.4	–
x1 = 0.9005	852.87 ± 0.45	–	1194.1 ± 1.4	–
x1 = 0.9009	–	837.13 ± 0.44	–	1128.3 ± 1.4
x1 = 0.9487	–	835.54 ± 0.44	–	1132.2 ± 1.4
x1 = 0.9489	851.15 ± 0.45	–	1198.2 ± 1.4	–

CC(C)(C)Cl [2-chloro-2-methylpropane]
[1]
Conditions	mass density [kg/m3]	speed of sound [m/s]
298.15 K	835.67 ± 0.44	983.1 ± 1.4
313.15 K	818.43 ± 0.43	–
333.15 K	–	920.3 ± 1.4

CCC(C)Cl (stereo not given) [2-chlorobutane]
[1]
Conditions	mass density [kg/m3]	speed of sound [m/s]
298.15 K	867.37 ± 0.45	1066.8 ± 1.4
313.15 K	850.16 ± 0.45	–
333.15 K	–	1006.9 ± 1.4
